Assay results taken from patent publication US20240400500A1, “SMALL-MOLECULE COMPOUND HAVING NAPHTHALENETHIOL ETHER STRUCTURE, AND USE THEREOF” (HANGZHOU PHECDAMED CO., LTD., priority 2021, published 2024).

What was measured:
[1] = In vitro liver microsome stability test (mice); assay type: in vitro ADME; settings: mice liver microsomes, NADPH, 37° C., 0-45 min
Procedure: (§1) Selecting Ketanserin as the reference compound. The specific method is as follows:
(§2) Preparing 0.1M K3PO4 (pH 7.4) buffer and 3×NADPH stock solution (6 mM, 5 mg/mL), and preheating in a 37° C. water bath; preparing of test compound and control compound spiking solution: adding 5 μL compound stock solution ([…]) into 95 μL acetonitrile; preparing of 1.5 μM spiking solution in microsomes (0.75 mg/mL): adding 1.5 μL spiking solution and 18.75 μL liver microsomes solution (20 mg/mL) into 479.75 μL K3PO4 buffer; taking 30 μL spiking solution in microsomes to the multi-well plate and incubating at 37° C. for 5 minutes; adding 15 μL NADPH stock solution into each well to start the reaction, and timing; respectively at 0 min, 5 min, 15 min, 30 min and 45 min, adding 150 μL of IS-containing acetonitrile solution to terminate the reaction; shaking for 10 mins and then centrifuging at 6000 rpm for 15 mins; taking 80 μL of the supernatant from each well for LC/MS detection and calculating T1/2.
(§3) Note: The mice and human liver microsomes used in the experiments are purchased from Xenotech.

[2] = In vitro liver microsome stability test (human); assay type: in vitro ADME; settings: human liver microsomes, NADPH, 37° C., 0-45 min
Procedure: as §1, §2, §3

HEK293T-mtkeima cells [3] = test: Functional test of mitophagy inducer, direct treatment without CCCP; assay type: cell-based, human; settings: for Ability to induce mitophagy: HEK293T-mtkeima cells, number of cells in which mitophagy occurs/number of total cells
Procedure: Seeding human embryonic kidney transformed cells HEK293T-mtkeima cells in a 96-well black ELISA Plate at 1.5*10^5 cells/ml, 100 μl per well; after 25 hours, adding UMI-77 and compounds I-1˜I-26 respectively, and setting up 3 replicates; under 37° C., 5% CO2 incubation conditions, taking picture with biotekcytation5 every few hours for a total of 20 hours. Taking the bright field as the focusing channel, and taking 9pictures per well, and processing the pictures by using the instrument software and converting into the degree of mitophagy strength, exemplifying by UMI-77 and Compound I-4, the results are shown in FIG. 1.
Note: The HEK293T-mtkeima cells used in the experiments are HEK293T-mtkeima cells obtained according to the method mentioned in the literature [Cen, X. et al. Nat Commun 11, 5731 (2020).], by using lentiviral packaging technology, and stably expressing mtkeima protein in HEK293T cells. The CCCP used in the experiments is purchased from TargetMol (Item No. T7081).

HEK293T-mtkeima cells [4] = test: Selective induction of mitophagy after CCCP-induced mitochondrial damage; assay type: cell-based, human; settings: 5 uM or 10 uM CCCP pre-treatment compared with no CCCP treatment

| SMILES | Ability to induce mitophagy (HEK293T-mtkeima cells [3]) | other results |
| --- | --- | --- |
| CN(c1cc(SCC(=O)O)c(O)c2ccccc12)S(=O)(=O)c1ccc(Br)cc1 [Compound I-1] | +++ (strong ability to induce mitophagy (number of cells in which mitophagy occurs/number of total cells >0.30)) | Liver microsome stability [1]: relatively superior stability; Liver microsome stability [2]: relatively superior stability; Selective induction of autophagy in damaged mitochondria (FIG. 2) (HEK293T-mtkeima cells [4]): more likely to induce autophagy in damaged mitochondria |
| O=C(O)CSc1cc(N(CCO)S(=O)(=O)c2ccc(Br)cc2)c2ccccc2c1O [Compound I-2] | ++ (moderate ability to induce mitophagy (number of cells in which mitophagy occurs/number of total cells is in the range of 0.2~0.3)) | – |
| O=C(O)CSc1cc(N(c2ccccc2)S(=O)(=O)c2ccc(Br)cc2)c2ccccc2c1O [Compound I-3] | ++ (moderate ability to induce mitophagy (number of cells in which mitophagy occurs/number of total cells is in the range of 0.2~0.3)) | – |
| CN=S(=O)(Nc1cc(SCC(=O)O)c(O)c2ccccc12)c1ccc(Br)cc1 (centres unmarked) [Compound I-4] | +++ (strong ability to induce mitophagy (number of cells in which mitophagy occurs/number of total cells >0.30)) | Liver microsome stability [1]: relatively superior stability; Liver microsome stability [2]: relatively superior stability; Strength of mitophagy induction compared with UMI-77 (FIG. 1) (HEK293T-mtkeima cells [3]; cells not treated with CCCP): induces mitophagy more strongly than UMI-77 |
| O=C(O)CSc1cc(NS(=O)(=NC2CC2)c2ccc(Br)cc2)c2ccccc2c1O (centres unmarked) [Compound I-5] | +++ (strong ability to induce mitophagy (number of cells in which mitophagy occurs/number of total cells >0.30)) | – |
| O=C(O)CSc1cc(NS(=O)(=NC2COC2)c2ccc(Br)cc2)c2ccccc2c1O (centres unmarked) [Compound I-6] | +++ (strong ability to induce mitophagy (number of cells in which mitophagy occurs/number of total cells >0.30)) | – |
| O=C(O)CSc1cc(NS(=O)(=Nc2ccccc2)c2ccc(Br)cc2)c2ccccc2c1O (centres unmarked) [Compound I-8] | ++ (moderate ability to induce mitophagy (number of cells in which mitophagy occurs/number of total cells is in the range of 0.2~0.3)) | – |
| CN=S(=O)(c1ccc(Br)cc1)N(C)c1cc(SCC(=O)O)c(O)c2ccccc12 (centres unmarked) [Compound I-9] | ++ (moderate ability to induce mitophagy (number of cells in which mitophagy occurs/number of total cells is in the range of 0.2~0.3)) | – |
| O=C(O)CSc1cc(N2CCN=S2(=O)c2ccc(Br)cc2)c2ccccc2c1O (centres unmarked) [Compound I-10] | ++ (moderate ability to induce mitophagy (number of cells in which mitophagy occurs/number of total cells is in the range of 0.2~0.3)) | – |
| O=C(O)CSc1cc(N2CCCN=S2(=O)c2ccc(Br)cc2)c2ccccc2c1O (centres unmarked) [Compound I-11] | ++ (moderate ability to induce mitophagy (number of cells in which mitophagy occurs/number of total cells is in the range of 0.2~0.3)) | – |
| CN=S(=O)(Nc1cc(SCc2nn[nH]n2)c(O)c2ccccc12)c1ccc(Br)cc1 (centres unmarked) [Compound I-12] | +++ (strong ability to induce mitophagy (number of cells in which mitophagy occurs/number of total cells >0.30)) | – |
| CN=S(=O)(Nc1cc(SCc2nnc[nH]2)c(O)c2ccccc12)c1ccc(Br)cc1 (centres unmarked) [Compound I-13] | ++ (moderate ability to induce mitophagy (number of cells in which mitophagy occurs/number of total cells is in the range of 0.2~0.3)) | – |
| CN=S(=O)(Nc1cc(SCC(=O)O)c(OC(C)=O)c2ccccc12)c1ccc(Br)cc1 (centres unmarked) [Compound I-14] | ++ (moderate ability to induce mitophagy (number of cells in which mitophagy occurs/number of total cells is in the range of 0.2~0.3)) | – |
| CN=S(=O)(Nc1cc(SCC(=O)O)c(O)c2ccccc12)c1ccc(Oc2ccccc2)cc1 (centres unmarked) [Compound I-17] | +++ (strong ability to induce mitophagy (number of cells in which mitophagy occurs/number of total cells >0.30)) | – |
| CN=S(=O)(Nc1cc(SCC(=O)O)c(O)c2ccccc12)c1ccc(-c2ccccc2)cc1 (centres unmarked) [Compound I-18] | ++ (moderate ability to induce mitophagy (number of cells in which mitophagy occurs/number of total cells is in the range of 0.2~0.3)) | – |
| CN=S(=O)(Nc1cc(SCC(=O)O)c(O)c2ccccc12)c1ccc(C(F)(F)F)cc1 (centres unmarked) [Compound I-19] | +++ (strong ability to induce mitophagy (number of cells in which mitophagy occurs/number of total cells >0.30)) | – |
| CN=S(=O)(Nc1cc(SCC(=O)O)c(O)c2ccccc12)c1ccc2ccccc2c1 (centres unmarked) [Compound I-20] | ++ (moderate ability to induce mitophagy (number of cells in which mitophagy occurs/number of total cells is in the range of 0.2~0.3)) | – |
| CN=S(=O)(Nc1cc(SCC(=O)O)c(O)c2ccccc12)c1cccs1 (centres unmarked) [Compound I-21] | +++ (strong ability to induce mitophagy (number of cells in which mitophagy occurs/number of total cells >0.30)) | – |
| CN=S(=O)(Nc1cc(SCC(=O)O)c(O)c2ccccc12)c1cccc(-c2ccccc2)c1 (centres unmarked) [Compound I-22] | ++ (moderate ability to induce mitophagy (number of cells in which mitophagy occurs/number of total cells is in the range of 0.2~0.3)) | – |
| O=C(O)CSc1cc(NS(=O)(=O)c2ccc(Br)cc2)c2ccccc2c1O [UMI-77, reference compound] | + (weak ability to induce mitophagy (number of cells in which mitophagy occurs/number of total cells is in the range of 0.1~0.2)) | Liver microsome stability [1]: unstable; Liver microsome stability [2]: unstable; Selective induction of autophagy in damaged mitochondria (FIG. 2) (HEK293T-mtkeima cells [4]): unable to selectively induce autophagy in damaged mitochondria |
